Key:
Format in all cases: functional
Periplaneta americana [1] = assay: Insecticidal activity against adult male Periplaneta americana (American cockroach) dosed through injection into abdomen assessed as mortality measured 24 hr post dose pre-treated with 50 ug metabolic inhibitor PB and 50 ug NIA 1 hr before compound injection
Periplaneta americana [2] = assay: Insecticidal activity against adult male Periplaneta americana (American cockroach) dosed through injection into abdomen assessed as mortality measured 24 hr post dose
[3] = tested on: Abdominal central nerve cord; assay: Neuroblocking activity in adult male Periplaneta americana (American cockroach) abdominal central nerve cords containing fifth and sixth ganglia assessed as neuroblocking concentration to supress frequncy below 10 counts/30 sec measured at 22 to 25 degC

Compound: O=[N+]([O-])/N=C1/N(CCCCCCN2CCN(Cc3cnc(Cl)s3)/C2=N/[N+](=O)[O-])CCN1Cc1cnc(Cl)s1
- MLD (Periplaneta americana [1]): 1.1 nmol
- MLD (Periplaneta americana [2]): 8.9 nmol

Compound: O=[N+]([O-])/N=C(/NCCCCCCN/C(=N\[N+](=O)[O-])NCc1ccc(Cl)nc1)NCc1ccc(Cl)nc1
- BC [3]: 26.3 µM
- MLD (Periplaneta americana [1]): 25.7 nmol
- MLD (Periplaneta americana [2]): >129 nmol

Compound: O=[N+]([O-])/N=C(/NCCCCCCN/C(=N\[N+](=O)[O-])NCc1cnc(Cl)s1)NCc1cnc(Cl)s1
- BC [3]: 14.8 µM
- MLD (Periplaneta americana [1]): 85.1 nmol
- MLD (Periplaneta americana [2]): >134 nmol

Compound: O=[N+]([O-])/N=C1\N(Cc2ccc(Cl)nc2)CCN1Cc1cccc(CN2CCN(Cc3ccc(Cl)nc3)/C2=N/[N+](=O)[O-])c1CN1CCN(Cc2ccc(Cl)nc2)/C1=N\[N+](=O)[O-]
- BC [3]: 100 µM
- MLD (Periplaneta americana [1]): 3.4 nmol
- MLD (Periplaneta americana [2]): 34 nmol

Compound: O=[N+]([O-])/N=C1\N(Cc2ccc(Cl)nc2)CCN1Cc1cccc(CN2CCN(Cc3ccc(Cl)nc3)/C2=N/[N+](=O)[O-])c1
- MLD (Periplaneta americana [1]): 1 nmol
- MLD (Periplaneta americana [2]): 20 nmol

Compound: O=[N+]([O-])/N=C1/N(CCCCCCN2CCN(Cc3ccc(Cl)nc3)/C2=N/[N+](=O)[O-])CCN1Cc1ccc(Cl)nc1 [Hexamethylene 1,6-bis-imadacloprid]
- BC [3]: 3.7 µM
- MLD (Periplaneta americana [1]): 0.29 nmol
- MLD (Periplaneta americana [2]): 2.2 nmol

Compound: O=[N+]([O-])/N=C1\NCCN1Cc1ccc(Cl)nc1 [IMIDACLOPRID]
- BC [3]: 2.3 µM
- MLD (Periplaneta americana [1]): 0.071 nmol
- MLD (Periplaneta americana [2]): 1.1 nmol
